Data taken from the supplement of paper PMC10307832.

Columns and labels:
Experiment in all cases: relative viability (nuclei count vs DMSO), 5 days (fraction); higher = more cells survive
[1] = system: LCLC-103H
Procedure, shortened: (§1)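 Medians of duplicate plates are given as relative viability. That measure is the nuclei count in treated wells divided by the count in vehicle wells. Counts were taken on 4× images of lung cancer cell lines in 1536-well plates, 5 days after pin-tool dosing the day after seeding with one drug alone or a fixed anchor-drug dose plus five library-drug doses (not always all listed) in √10 steps.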

[2] = system: LXF-289
Procedure, shortened: as §1

[3] = system: NCI-H1355
Procedure, shortened: as §1

[4] = system: NCI-H1563
Procedure, shortened: as §1

[5] = system: NCI-H1651
Procedure, shortened: as §1

[6] = system: NCI-H1755
Procedure, shortened: as §1

[7] = system: NCI-H1792
Procedure, shortened: as §1

[8] = system: NCI-H1915
Procedure, shortened: as §1

[9] = system: NCI-H2347
Procedure, shortened: as §1

[10] = system: NCI-H3122
Procedure, shortened: as §1

[11] = system: NCI-H322M
Procedure, shortened: as §1

[12] = system: NCI-H441
Procedure, shortened: as §1

[13] = system: NCI-H460
Procedure, shortened: as §1

[14] = system: NCI-H520
Procedure, shortened: as §1

[15] = system: NCI-H522
Procedure, shortened: as §1

[16] = system: NCI-H596
Procedure, shortened: as §1

[17] = system: NCI-H661
Procedure, shortened: as §1

[18] = system: NCI-H727
Procedure, shortened: as §1

[19] = system: PC-14
Procedure, shortened: as §1

[20] = system: RERF-LC-KJ
Procedure, shortened: as §1

[21] = system: SK-MES-1
Procedure, shortened: as §1

[22] = system: SW 900
Procedure, shortened: as §1

O=c1cc(-c2cccc3c2Sc2ccccc2S3)oc(N2CCOCC2)c1 + N=C(N)NC(=N)NCCc1ccccc1 [Phenformin] (partner 250 µM)
relative viability ([1]; first compound 0.08 µM): 0.31
relative viability ([1]; first compound 0.253 µM): 0.374
relative viability ([1]; first compound 0.8 µM): 0.361
relative viability ([1]; first compound 2.53 µM): 0.336
relative viability ([1]; first compound 8 µM): 0.296
relative viability ([2]; first compound 0.08 µM): 0.531
relative viability ([2]; first compound 0.253 µM): 0.526
relative viability ([2]; first compound 0.8 µM): 0.556
relative viability ([2]; first compound 2.53 µM): 0.431
relative viability ([2]; first compound 8 µM): 0.558
relative viability ([3]; first compound 0.08 µM): 0.47
relative viability ([3]; first compound 0.253 µM): 0.479
relative viability ([3]; first compound 0.8 µM): 0.421
relative viability ([3]; first compound 2.53 µM): 0.429
relative viability ([3]; first compound 8 µM): 0.409
relative viability ([4]; first compound 0.08 µM): 0.626
relative viability ([4]; first compound 0.253 µM): 0.689
relative viability ([4]; first compound 0.8 µM): 0.617
relative viability ([4]; first compound 2.53 µM): 0.633
relative viability ([4]; first compound 8 µM): 0.611
relative viability ([5]; first compound 0.08 µM): 0.342
relative viability ([5]; first compound 0.253 µM): 0.526
relative viability ([5]; first compound 0.8 µM): 0.423
relative viability ([5]; first compound 2.53 µM): 0.362
relative viability ([5]; first compound 8 µM): 0.299
relative viability ([6]; first compound 0.08 µM): 0.625
relative viability ([6]; first compound 0.253 µM): 0.694
relative viability ([6]; first compound 0.8 µM): 0.597
relative viability ([6]; first compound 2.53 µM): 0.545
relative viability ([6]; first compound 8 µM): 0.653
relative viability ([7]; first compound 0.08 µM): 0.185
relative viability ([7]; first compound 0.253 µM): 0.349
relative viability ([7]; first compound 0.8 µM): 0.258
relative viability ([7]; first compound 2.53 µM): 0.168
relative viability ([7]; first compound 8 µM): 0.345
relative viability ([8]; first compound 0.08 µM): 0.37
relative viability ([8]; first compound 0.253 µM): 0.4
relative viability ([8]; first compound 0.8 µM): 0.436
relative viability ([8]; first compound 2.53 µM): 0.355
relative viability ([8]; first compound 8 µM): 0.406
relative viability ([9]; first compound 0.08 µM): 0.541
relative viability ([9]; first compound 0.253 µM): 0.501
relative viability ([9]; first compound 0.8 µM): 0.416
relative viability ([9]; first compound 2.53 µM): 0.279
relative viability ([9]; first compound 8 µM): 0.362
relative viability ([10]; first compound 0.08 µM): 0.38
relative viability ([10]; first compound 0.253 µM): 0.418
relative viability ([10]; first compound 0.8 µM): 0.376
relative viability ([10]; first compound 2.53 µM): 0.36
relative viability ([10]; first compound 8 µM): 0.398
relative viability ([11]; first compound 0.08 µM): 0.738
relative viability ([11]; first compound 0.253 µM): 0.764
relative viability ([11]; first compound 0.8 µM): 0.742
relative viability ([11]; first compound 2.53 µM): 0.632
relative viability ([11]; first compound 8 µM): 0.688
relative viability ([12]; first compound 0.08 µM): 0.854
relative viability ([12]; first compound 0.253 µM): 1.2
relative viability ([12]; first compound 0.8 µM): 0.895
relative viability ([12]; first compound 2.53 µM): 0.903
relative viability ([12]; first compound 8 µM): 0.904
relative viability ([13]; first compound 0.08 µM): 0.535
relative viability ([13]; first compound 0.253 µM): 0.549
relative viability ([13]; first compound 0.8 µM): 0.571
relative viability ([13]; first compound 2.53 µM): 0.525
relative viability ([13]; first compound 8 µM): 0.531
relative viability ([14]; first compound 0.08 µM): 0.505
relative viability ([14]; first compound 0.253 µM): 0.507
relative viability ([14]; first compound 0.8 µM): 0.479
relative viability ([14]; first compound 2.53 µM): 0.372
relative viability ([14]; first compound 8 µM): 0.619
relative viability ([15]; first compound 0.08 µM): 0.56
relative viability ([15]; first compound 0.253 µM): 0.689
relative viability ([15]; first compound 0.8 µM): 0.622
relative viability ([15]; first compound 2.53 µM): 0.556
relative viability ([15]; first compound 8 µM): 0.67
relative viability ([16]; first compound 0.08 µM): 0.808
relative viability ([16]; first compound 0.253 µM): 0.812
relative viability ([16]; first compound 0.8 µM): 0.921
relative viability ([16]; first compound 2.53 µM): 0.756
relative viability ([16]; first compound 8 µM): 0.887
relative viability ([17]; first compound 0.08 µM): 0.269
relative viability ([17]; first compound 0.253 µM): 0.26
relative viability ([17]; first compound 0.8 µM): 0.271
relative viability ([17]; first compound 2.53 µM): 0.267
relative viability ([17]; first compound 8 µM): 0.259
relative viability ([18]; first compound 0.08 µM): 0.503
relative viability ([18]; first compound 0.253 µM): 0.591
relative viability ([18]; first compound 0.8 µM): 0.411
relative viability ([18]; first compound 2.53 µM): 0.571
relative viability ([18]; first compound 8 µM): 0.525
relative viability ([19]; first compound 0.08 µM): 0.553
relative viability ([19]; first compound 0.253 µM): 0.479
relative viability ([19]; first compound 0.8 µM): 0.54
relative viability ([19]; first compound 8 µM): 0.746
relative viability ([20]; first compound 0.08 µM): 0.4
relative viability ([20]; first compound 0.253 µM): 0.426
relative viability ([20]; first compound 0.8 µM): 0.465
relative viability ([20]; first compound 2.53 µM): 0.444
relative viability ([20]; first compound 8 µM): 0.406
relative viability ([21]; first compound 0.08 µM): 0.681
relative viability ([21]; first compound 0.253 µM): 0.762
relative viability ([21]; first compound 0.8 µM): 0.649
relative viability ([21]; first compound 2.53 µM): 0.642
relative viability ([21]; first compound 8 µM): 0.666
relative viability ([22]; first compound 0.08 µM): 0.645
relative viability ([22]; first compound 0.253 µM): 0.627
relative viability ([22]; first compound 0.8 µM): 0.441
relative viability ([22]; first compound 2.53 µM): 0.567
relative viability ([22]; first compound 8 µM): 0.597
